{
  "source": "patent US6143769A",
  "about": "“Phenylacetic acid benzylamides” (Karl Thomae GmbH, priority 1983, dated 2000)",
  "key": {"[1]": {"assay": "Study 3: plasma concentration of active substance, single test subject", "type": "in vivo, human", "conditions": "for Cmax: read-out: Maximum concentration; for Tmax: read-out: Time of peak concentration; for concentration at 1.5 h: 1.50 h; for concentration at 2.5 h: 2.50 h; for concentration at 3.5 h: 3.50 h"}, "glucose": {"tested_on": "glucose", "assay": "Study 1: whole blood glucose, 2 mg AG-EE 388 ZW capsule, 12 healthy male volunteers", "type": "in vivo, human", "conditions": "2 mg capsule"}, "clinical": {"assay": "clinical", "conditions": "human, plasma, 1 mg", "protocol": "More specifically, the studies which follow were carried out on healthy male volunteers in whom the levels of glucose and active substance in the course of time were determined:\nIn the interests of more precise clarification, study 5 was carried out (randomised, open, crossover). […] 2 hours after administration a standard breakfast (B) was eaten, 5 hours after administration a standard lunch (L) was eaten and 10 hours after administration a standard dinner (D) was eaten. Blood samples were taken at different times. The glucose concentrations were measured in the plasma as in study 1. […] The plasma concentrations of AG-EE 624 ZW were calculated as the difference between the two concentrations found:"}},
  "note": "Where two headings read alike, the source gives them in different places.",
  "data": [
    {"molecule": "CCOc1cc(CC(=O)NC(CC(C)C)c2ccccc2N2CCCCC2)ccc1C(=O)O", "note": "(racemic) [AG-EE 388 ZW, 2-ethoxy-4-[N-[1-(2-piperidino-phenyl)-3-methyl-1-butyl]aminocarbonylmethyl]-benzoic acid]", "values": [
      {"measurement": "Active substance concentration", "setting": "[1]; 2 mg, 5.00 h", "value": 0, "unit": "ng/mL"},
      {"measurement": "Active substance concentration", "setting": "[1]; 4 mg capsule, 0 h", "value": 0, "unit": "ng/mL"},
      {"measurement": "Active substance concentration", "setting": "[1]; 4 mg, 0.50 h", "value": 0, "unit": "ng/mL"},
      {"measurement": "Cmax", "setting": "[1]; human, plasma, po, 2 mg, 2 mg capsule", "value": 82, "unit": "ng/mL"},
      {"measurement": "Tmax", "setting": "[1]; human, plasma, po, 2 mg", "value": 1.75, "unit": "h"},
      {"measurement": "Cmax", "setting": "[1]; human, plasma, po, 4 mg, 4 mg capsule", "value": 150, "unit": "ng/mL"},
      {"measurement": "Tmax", "setting": "[1]; human, plasma, po, 4 mg", "value": 1.5, "unit": "h"},
      {"measurement": "concentration at 0.5 h", "setting": "[1]; human, plasma, po, 2 mg capsule, 0.50 h", "value": 11, "unit": "ng/mL"},
      {"measurement": "concentration at 0.75 h", "setting": "[1]; human, plasma, po, 2 mg", "value": 16, "unit": "ng/mL"},
      {"measurement": "concentration at 1 h", "setting": "[1]; human, plasma, po, 2 mg", "value": 40, "unit": "ng/mL"},
      {"measurement": "concentration at 1.25 h", "setting": "[1]; human, plasma, po, 2 mg", "value": 44, "unit": "ng/mL"},
      {"measurement": "concentration at 1.5 h", "setting": "[1]; human, plasma, po, 2 mg", "value": 68, "unit": "ng/mL"},
      {"measurement": "concentration at 1.75 h", "setting": "[1]; human, plasma, po, 2 mg", "value": 82, "unit": "ng/mL"},
      {"measurement": "concentration at 2 h", "setting": "[1]; human, plasma, po, 2 mg", "value": 82, "unit": "ng/mL"},
      {"measurement": "concentration at 2.5 h", "setting": "[1]; human, plasma, po, 2 mg", "value": 80, "unit": "ng/mL"},
      {"measurement": "concentration at 3 h", "setting": "[1]; human, plasma, po, 2 mg", "value": 72, "unit": "ng/mL"},
      {"measurement": "concentration at 3.5 h", "setting": "[1]; human, plasma, po, 2 mg", "value": 59, "unit": "ng/mL"},
      {"measurement": "concentration at 4 h", "setting": "[1]; human, plasma, po, 2 mg", "value": 32, "unit": "ng/mL"},
      {"measurement": "concentration at 0.75 h", "setting": "[1]; human, plasma, po, 4 mg", "value": 10, "unit": "ng/mL"},
      {"measurement": "concentration at 1 h", "setting": "[1]; human, plasma, po, 4 mg", "value": 72, "unit": "ng/mL"},
      {"measurement": "concentration at 1.25 h", "setting": "[1]; human, plasma, po, 4 mg", "value": 130, "unit": "ng/mL"},
      {"measurement": "concentration at 1.5 h", "setting": "[1]; human, plasma, po, 4 mg", "value": 150, "unit": "ng/mL"},
      {"measurement": "concentration at 1.75 h", "setting": "[1]; human, plasma, po, 4 mg", "value": 148, "unit": "ng/mL"},
      {"measurement": "concentration at 2 h", "setting": "[1]; human, plasma, po, 4 mg", "value": 141, "unit": "ng/mL"},
      {"measurement": "concentration at 2.5 h", "setting": "[1]; human, plasma, po, 4 mg", "value": 119, "unit": "ng/mL"},
      {"measurement": "concentration at 3 h", "setting": "[1]; human, plasma, po, 4 mg", "value": 109, "unit": "ng/mL"},
      {"measurement": "concentration at 3.5 h", "setting": "[1]; human, plasma, po, 4 mg", "value": 84, "unit": "ng/mL"},
      {"measurement": "concentration at 4 h", "setting": "[1]; human, plasma, po, 4 mg", "value": 71, "unit": "ng/mL"},
      {"measurement": "concentration at 5 h", "setting": "[1]; human, plasma, po, 4 mg, 5.00 h", "value": 64, "unit": "ng/mL"},
      {"measurement": "concentration at 6 h", "setting": "[1]; human, plasma, po, 4 mg, 6.00 h", "value": 49, "unit": "ng/mL"},
      {"measurement": "concentration at 7 h", "setting": "[1]; human, plasma, po, 4 mg, 7.00 h", "value": 21, "unit": "ng/mL"},
      {"measurement": "concentration at 8 h", "setting": "[1]; human, plasma, po, 4 mg, 8.00 h", "value": 18, "unit": "ng/mL"},
      {"measurement": "Duration of activity", "setting": "glucose", "value": "about 5 hours"},
      {"measurement": "Glucose, deviation from placebo", "setting": "glucose; 0 h", "value": "n.s."},
      {"measurement": "Glucose, deviation from placebo", "setting": "glucose; 0.50 h", "value": "n.s."},
      {"measurement": "Glucose, deviation from placebo", "setting": "glucose; 0.75 h", "value": -9, "unit": "%"},
      {"measurement": "Glucose, deviation from placebo", "setting": "glucose; 1.00 h", "value": -17, "unit": "%"},
      {"measurement": "Glucose, deviation from placebo", "setting": "glucose; 1.50 h", "value": -27, "unit": "%"},
      {"measurement": "Glucose, deviation from placebo", "setting": "glucose; 2.00 h", "value": -24, "unit": "%"},
      {"measurement": "Glucose, deviation from placebo", "setting": "glucose; 2.50 h", "value": -19, "unit": "%"},
      {"measurement": "Glucose, deviation from placebo", "setting": "glucose; 3.00 h", "value": "n.s."},
      {"measurement": "Glucose, deviation from placebo", "setting": "glucose; 4.00 h", "value": -24, "unit": "%"},
      {"measurement": "Glucose, deviation from placebo", "setting": "glucose; 5.00 h", "value": -9, "unit": "%"},
      {"measurement": "Glucose, deviation from placebo", "setting": "glucose; 5.50 h (lunch)", "value": "n.s."},
      {"measurement": "Glucose, deviation from placebo", "setting": "glucose; 6.00 h", "value": "n.s."},
      {"measurement": "Glucose, deviation from placebo", "setting": "glucose; 7.00 h (snack)", "value": "n.s."},
      {"measurement": "Glucose, deviation from placebo", "setting": "glucose; 8.00 h", "value": -5, "unit": "%"},
      {"measurement": "Glucose, deviation from placebo", "setting": "glucose; 9.00 h", "value": "n.s."},
      {"measurement": "Glucose, deviation from placebo", "setting": "glucose; 10.00 h (dinner)", "value": "n.s."},
      {"measurement": "concentration at 0.08 h", "setting": "clinical; iv", "value": 33.3, "unit": "ng/mL"},
      {"measurement": "concentration at 0.17 h", "setting": "clinical; iv", "value": 74.8, "unit": "ng/mL"},
      {"measurement": "concentration at 0.25 h", "setting": "clinical; iv", "value": 104, "unit": "ng/mL"},
      {"measurement": "concentration at 0.28 h", "setting": "clinical; iv", "value": 102, "unit": "ng/mL"},
      {"measurement": "concentration at 0.33 h", "setting": "clinical; iv", "value": 85.6, "unit": "ng/mL"},
      {"measurement": "concentration at 0.42 h", "setting": "clinical; iv", "value": 69.6, "unit": "ng/mL"},
      {"measurement": "concentration at 0.5 h", "setting": "clinical; iv", "value": 60.1, "unit": "ng/mL"},
      {"measurement": "concentration at 0.75 h", "setting": "clinical; iv", "value": 44.2, "unit": "ng/mL"},
      {"measurement": "concentration at 1 h", "setting": "clinical; iv", "value": 35.8, "unit": "ng/mL"},
      {"measurement": "concentration at 1.25 h", "setting": "clinical; iv", "value": 31.4, "unit": "ng/mL"},
      {"measurement": "concentration at 1.5 h", "setting": "clinical; iv", "value": 27, "unit": "ng/mL"},
      {"measurement": "concentration at 2 h", "setting": "clinical; iv", "value": 21, "unit": "ng/mL"},
      {"measurement": "concentration at 2.5 h", "setting": "clinical; iv", "value": 17.6, "unit": "ng/mL"},
      {"measurement": "concentration at 3 h", "setting": "clinical; iv", "value": 13.5, "unit": "ng/mL"},
      {"measurement": "concentration at 4 h", "setting": "clinical; iv", "value": 9.4, "unit": "ng/mL"},
      {"measurement": "concentration at 5 h", "setting": "clinical; iv", "value": 7, "unit": "ng/mL"},
      {"measurement": "concentration at 6 h", "setting": "clinical; iv", "value": 4, "unit": "ng/mL"},
      {"measurement": "concentration at 9 h", "setting": "clinical; iv", "value": 1.5, "unit": "ng/mL"},
      {"measurement": "concentration at 0.5 h", "setting": "clinical; po", "value": 35.1, "unit": "ng/mL"},
      {"measurement": "concentration at 0.75 h", "setting": "clinical; po", "value": 40.2, "unit": "ng/mL"},
      {"measurement": "concentration at 1 h", "setting": "clinical; po", "value": 39.1, "unit": "ng/mL"},
      {"measurement": "concentration at 1.5 h", "setting": "clinical; po", "value": 30.8, "unit": "ng/mL"},
      {"measurement": "concentration at 2 h", "setting": "clinical; po", "value": 24, "unit": "ng/mL"},
      {"measurement": "concentration at 3 h", "setting": "clinical; po", "value": 14.8, "unit": "ng/mL"},
      {"measurement": "concentration at 4 h", "setting": "clinical; po", "value": 8.7, "unit": "ng/mL"},
      {"measurement": "concentration at 5 h", "setting": "clinical; po", "value": 5.6, "unit": "ng/mL"},
      {"measurement": "concentration at 6 h", "setting": "clinical; po", "value": 3.5, "unit": "ng/mL"},
      {"measurement": "concentration at 9 h", "setting": "clinical; po", "value": 1.8, "unit": "ng/mL"}
    ]}
  ]
}
